Data: patent US20230130103A1, “TARGETED PHARMACOLOGICAL THERAPEUTICS IN UVEAL MELANOMA” (Washington University, priority 2017, published 2023)

What was measured:
[1] = system: 92.1 cells; test: Immunoblot of histone H3 lysine 27 trimethylation (PRC2 inhibition); assay type: cell-based, Human; settings: 7 d GSK503, FIG. 7G
Method: (§1) Gαq-mutant 92.1 UM cells were treated with FR or vehicle, and RNA was collected 1 and 3 d after treatment for RNA-Seq analysis. FIG. 7A Unsupervised principal component analysis identified FR treatment and time in culture as the two main separable factors contributing to changes in gene expression. […] FIG. 7D FR-repressed genes identified as targets of the polycomb repressive complex 2 by Geneset enrichment analysis. FIG. 7E The Ezh1/2 inhibitor GSK503 blocks the morphological differentiation elicited by FR. 92.1 UM cells were treated 7 d with GSK503 and 3 d with FR and then imaged by phase contrast microscopy. […] 92.1 cells were treated 7 d with GSK503 and 3 d with FR and pelleted. FIG. 7G PRC2 inhibition by GSK503.
For standard immunoblots, cells were lysed and cleared in radioimmunoprecipitation assay buffer (150 mM sodium chloride, 1% Triton-X100, 0.5% sodium deoxycholate, 0.1% sodium dodecyl sulfate, 50 mM Tris, pH 8.0) with 1×Complete Protease Inhibitor (Roche, cat.11697498001). Histones were isolated from cells using the Active Motif Histone Purification Mini Kit (cat.40026, Active Motif, Carlsbad, Calif.). Lysates were resolved on 15% SDS-PAGE gels and transferred to Immobilon(P) PVDF membrane (Milipore, cat.IPVH00010). […] Following incubation, membranes were washed at least three times with TBST and signals were detected using LI-COR Odyssey model 9120 imaging system (LI-COR). […]

[2] = system: 92.1 cells; test: Melanocytic re-differentiation (morphology, pigmentation, immunostaining); assay type: cell-based, Human; settings: 7 d GSK503 and 3 d FR
Method: FIG. 5A Morphological changes elicited by FR. UM cell lines were treated 3 d with FR and imaged by phase contrast microscopy. FR caused UM cells driven by constitutively active Gαq (92.1 and Mel202) to lose their characteristic spindle shaped and assume a stellate shape with multiple projections. FR had no effect on BRAF-driven UM cells (OCM-1A). FIG. 5B Melanocytic differentiation of FR-treated UM cells indicated by pigmentation. UM cell lines were treated 3 d with FR. Cells were pelleted and examined macroscopically. […] Scale bar=50 μm.
as §1
Cell fixation was carried out by adding an equal volume of 2×fixative (PBS with 4% paraformaldehyde and 0.4% glutaraldehyde) to UM cells in RPMI growth medium. After 15 min at 37° C., cells were permeabilized with 0.1% Triton X-100 in PBS for 5 min, washed with PBS, and blocked with 2% fish gelatin (Sigma-Aldrich) in PBS. Primary and secondary antibodies were diluted in 2% fish gelatin in PBS. Primary antibodies included mouse monoclonal anti-pre-melanosomal protein (One World Lab, San Diego, Calif.), rabbit polyclonal anti-tyrosinase (One World Lab), rabbit polyclonal anti-dopachrome tautomerase (One World Lab), rabbit polyclonal anti-S100 (DakoCytomation, Denmark), and mouse monoclonal anti-BrdU (Life Technologies). Secondary antibodies were Alexa-fluor conjugates (Life Technologies), and the mounting agent was ProLong Gold (Life Technologies). Cell morphology was assessed by phase contrast imaging with an inverted microscope (Olympus IX72) using a 10×objective.

## Cc1cc(C)c(CNC(=O)c2cc(-c3ccc(N4CCN(C)CC4)nc3)cc3c2c(C)cn3C(C)C)c(=O)[nH]1 [GSK503, reference compound]
[1]
  histone H3 lysine 27 trimethylation (immunoblot): reduced histone H3 lysine 27 trimethylation
[2]; FIG. 7E
  FR-induced re-differentiation (morphology): blocked the ability of FR to re-differentiate these cells
[2]; FIG. 7F
  pigmentation of FR-treated cells: decreased pigmentation
